Test results from patent US20010006673A1, “LUTEIN- CONTAINING SUPPLEMENT AND PROCESS FOR ENHANCING IMMUNE RESPONSE IN ANIMALS” (priority 1998, published 2001).
Where two headings read alike, the source gives them in different places.

Columns and labels:
[1] = Body weight and food intake of cats fed lutein; type: in vivo, Tabby cats
Description: Fifty-six female Tabby cats (10 months old) were randomly assigned to be fed 0, 1, 5, or 10 mg lutein daily for 12 weeks. The lutein contained 76.66% lutein and 5.23% zeaxanthin and was incorporated into the basal diet (see Table 3) to a final concentration of 250 mg lutein/kg of diet.
(§1) Prior to being fed to the cats, the lutein-containing diet was mixed with additional basal diet to achieve the desired lutein concentration. The final diets were mixed weekly and stored at −20° C. in sealed containers undernitrogen gas. […] Food and water were available ad libitum. Cats were housed (7 cats/pen; 1.5×5.0 m) in a temperature (20 to 22° C.) and light (14 h light) controlled facility.

[2] = tested on: IL-2; test: IL-2 production by PHA-stimulated whole blood cultures, dogs; type: in vivo, Beagle dogs
Description: Whole blood was diluted 1:2 with RPMI-1640 supplemented with Hepes and antibiotics (described earlier) and 400 μL of diluted blood were pipetted into 48-well plates (Costar, Cambridge, Mass.). Cells were stimulated with PHA (400 μL of a 5 μg/mL solution) for 48 hours at […] in a 5% CO2 atmosphere. The plates were centrifuged at 200×g for 10 minutes and the supernatant was frozen at −80° C. The IL-2 content of the culture supernatant was determined in triplicate by ELISA (Intergen, Purchase, N.Y.). The polyclonal anti-human IL-2 cross-reacted with canine IL-2 and recombinant human IL-2 was used as the standard.

[3] = tested on: Crandell feline kidney fibroblast; test: NK cytotoxicity assay, cats; type: in vivo, Tabby cats
Description: The Crandell feline kidney fibroblast was used as the target cell. Target cells were resuspended to 2×10^5 cells/mL and triplicate 100 μL aliquots were pipetted into a 96-well U-bottom plate (Costar, Cambridge, Mass.) and cells allowed to adhere. Isolated PBMC (effector cells) were then added to the target cells to achieve effector:target cell (E:T) ratios of 25:1, 12.5:1 and 6.25:1. The cell mixture was incubated for 8 hours after which 100 μL Rose Bengal (2.5 g/L in PBS; Sigma, St. Louis, Mo.) were added and incubated at room temperature for 5 minutes. Optical density was measured at 550 nm using an ELISA plate reader. The percentage of NK-specific lysis was calculated as follows:
Specific cytotoxicity (%)=100×{1−[(OD of target cells and effector cells−OD of effector cells)/(OD of target cells)]}

[4] = tested on: malondialdehyde (MDA) production; test: Lipid peroxidation (TBARS) assay, dog plasma; type: in vivo, Beagle dogs; details: dogs
Description: Plasma lipid peroxidation activity was determined by measuring malondialdehyde (MDA) production. The standard used was 1,1,3,3-tetramethoxypropane JMP) (Sigma Chem. Co., St. Louis, Mo.). Duplicate 500 μL plasma samples were pipetted into 15 ml, glass tubes and 3 mL of 10 g/L phosphoric acid and 1 ml of 6 g/L TBA solution were added. The mixture was boiled in a water bath for 45 minutes. Tubes were allowed to cool and the TBA-MDA complex was extracted with 4 ml of n-butanol. The butanol layer was separated by centrifugation at 1,000×g for 10 minutes and absorbance was measured on at 532 nm (Beckman, Fullerton, Calif.). The TBARS activity was expressed in nmole MDA/L plasma.

[5] = parameters: species or system Beagle dogs; details: dog, in vivo
Description: Fifty six female Beagle dogs (17 to 18 months old; average body weight 11.4±0.4 kg) were randomly assigned to be supplemented daily with 0, 5, 10 or 20 mg lutein for 17 weeks. The lutein contained 76.66% lutein and 5.23% zeaxanthin. The lutein supplement was resuspended in soybean oil to the appropriate concentration and 1 mL administered perorally at 0800 h daily. Food (200 g/dog/d) was offered immediately after the lutein supplementation. The basal diet shown in Table 1 below met or exceeded the requirements for all essential nutrients (NRC 1985).
All dogs were housed in 2×2 m pens (2 dogs/pen) in a temperature (20 to 22° C.) and light (14 h light) controlled facility. Body weight was recorded at weeks 0, 6, and 12.

[6] = Stability of lutein in prepared cat food; type: physicochemical; details: diets mixed weekly, stored at −20° C. in sealed containers under nitrogen gas, analyzed periodically
Description: as §1

[7] = parameters: species or system Tabby cats; details: in vivo
Description: Blood was collected by jugular venipuncture into heparinized evacuated tubes on weeks 0, 2, 4, 8 and 12 and aliquots used for HPLC analysis and for assessing immune responses.
Plasma lutein, retinol and α-tocopherol were analyzed by reverse phase HPLC. Briefly, plasma protein was precipitated with an equal volume of ethanol containing 0.1% butylated hydroxytoluene (BHT) (Aldrich Chemical Co., Milwaukee, Wis.). The mixture was extracted with 5 mi of a 1:1 mixture of petroleum ether:anhydrous diethyl ether and the dried residue resuspended in mobile phase. The mobile phase was a mixture of acetonitrile, methanol and chloroform (47:47:6, v/v/v). The internal standard used was retinyl acetate (Sigma Chem. Co., St. Louis, Mo.). Samples were eluted on a 5 μm C18 reverse phase column (3.9×150 mm; Resolve, Millipore Corp., Milford Mass.) with a flow rate of 1.0 ml/min. The identity of the eluted compounds was verified by comparing their absorption spectra with those of standard compounds.

[8] = tested on: transplantable murine mammary tumor cell line; details: mice, dietary lutein; cited from earlier work

CC1=C[C@H](O)CC(C)(C)[C@H]1/C=C/C(C)=C/C=C/C(C)=C/C=C/C=C(C)/C=C/C=C(C)/C=C/C1=C(C)C[C@@H](O)CC1(C)C [lutein]
Food intake among treatments [1]: not significantly different
Body weight average ([1]; across all diets and periods): 1.41 ± 0.04 kg
Average daily food intake ([1]; across the study period): 83.2 g
Effect on changes in body weight ([1]; during the experimental period): did not significantly affect
Production of IL-2 by PHA-stimulated PBMC among dietary treatments ([2]; throughout the experimental period): did not differ significantly
Concentration of IL-2 in culture medium, average ([2]; throughout the study): 15.7 ± 0.4 ng/mL
NK cell cytotoxicity ([3]; cats fed 1 mg lutein, week 12 (E:T of 6.25:1) and 8 (E:T of 25:1)): significantly higher
NK cell cytotoxic activity ([3]; cats fed 10 mg lutein, week 8, significant with E:T ratios of 6.25:1 and 25:1): higher
NK cell cytotoxicity ([3]; cats, E:T ratio of 12.5:1): No significant treatment differences
Effect on plasma TBARS activity [4]: did not significantly affect
Plasma TBARS activity, average ([4]; across all treatments and periods): 95.8±0.1 nmol MDA/L
Body weight average [5]: 11.4 ± 0.4 kg
Effect on changes in body weight [5]: did not significantly affect
Destruction of lutein in prepared food [6]: no significant destruction
Plasma lutein [7]: increased in a dose-dependent manner
Mammary tumor incidence [8]: decreases
Tumor growth [8]: decreases
Tumor latency [8]: shortened
